Here are results for twelve compounds from ChEMBL document CHEMBL1201862, “PubChem BioAssay data set” (2004).

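Five concentrations, 48 hours, 96-well plates. At the GI50, growth is halved.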 The source made the active and inactive calls. No stated cut-off is given here; in the data, active = GI50 up to about 1.1 µM and inactive = higher.

Some test systems named below: IGROV-1; NCI-H226; SW-620; KM12; UO-31; CAKI-1; UACC-62; SK-MEL-2; SNB-75; HCT-15; U-251; SK-MEL-5; LOX IMVI; COLO 205; SF-295; 786-0; SF-539; Hs-578T; T47D.
Holding throughout (assay): DTP human tumour cell line panel, 48 h

In the case of `CC1=CC(=O)NP(=O)(Oc2ccc(Cl)cc2)N1` (stereo unspecified), the GI50 in the test with IGROV-1, in the test with NCI-H226, in the test on SW-620, in the test with KM12, in the test on UO-31 and in the test with CAKI-1 was > 100 µM (inactive) each time. For the same compound, the GI50 is > 100 µM (inactive) in the test with UACC-62; > 100 µM (inactive) in the test with SK-MEL-2; > 100 µM (inactive) with SNB-75; greater than 100 µM in the test on HCT-15; > 100 µM (inactive) in the test with U-251; > 100 µM (inactive) in the test on SK-MEL-5. Further, the GI50 in the test on LOX IMVI, with COLO 205, in the test on SF-295, in the test with 786-0 and in the test on SF-539 was > 100 µM (inactive) in each case.
In the case of `Cc1ccc(S(=O)(=O)N[C@H](C(=O)O)c2ccccc2)cc1`, the GI50 in the test on IGROV-1, in the test on NCI-H226, in the test with SW-620, with KM12, with UO-31 and in the test with CAKI-1 was > 100 µM (inactive) throughout. The GI50 is > 100 µM (inactive) with UACC-62; > 100 µM (inactive) in the test on SK-MEL-2; > 100 µM (inactive) in the test with SNB-75; greater than 100 µM in the test on HCT-15; > 100 µM (inactive) in the test with U-251; > 100 µM (inactive) in the test with SK-MEL-5. The GI50 in the test on LOX IMVI, in the test on COLO 205, in the test on SF-295, with 786-0 and with SF-539 was > 100 µM (inactive) each time.
As for `C/C(=N\N(c1ccccc1)c1ccccc1)c1c(O)cc(C)oc1=O`, the GI50 in the test on NCI-H226 is > 100 µM (inactive); in the test on SW-620, > 100 µM (inactive); in the test on KM12 it was > 100 µM (inactive); in the test on UO-31, 25.7 µM (inactive); in the test on CAKI-1, 90.2 µM (inactive); in the test on UACC-62, 54 µM (inactive). Also, the GI50 in the test with SK-MEL-2 was > 100 µM (inactive); in the test with SNB-75, > 100 µM (inactive); with HCT-15 it was 71.3 µM; with U-251, 22.4 µM (inactive); in the test with LOX IMVI, > 100 µM (inactive); with SF-295 it was > 100 µM (inactive). The GI50 is > 100 µM (inactive) in the test with 786-0 and 67.8 µM (inactive) in the test with SF-539.
As for `CCOC(=O)CCC(NC(=O)c1ccc(NC(OC)c2nc3cc(C(F)(F)F)ccc3nc2-c2ccccc2)cc1)C(=O)OCC` (stereo unspecified), the GI50 in the test on IGROV-1 is 15.7 µM (inactive); in the test on NCI-H226, 18.6 µM (inactive); with SW-620, 7.62 µM (inactive); in the test on KM12, 6.24 µM (inactive); in the test on UO-31, 13.6 µM (inactive); in the test with CAKI-1, 17.1 µM (inactive). Also, the GI50 in the test on UACC-62 was 16.9 µM (inactive); with SK-MEL-2 it was 17.3 µM (inactive); with SNB-75, 19.9 µM (inactive); in the test with HCT-15, 14.3 µM; with U-251, 15.6 µM (inactive); in the test with SK-MEL-5, 16.3 µM (inactive). Further, the GI50 in the test on LOX IMVI was 10.4 µM (inactive); in the test with COLO 205 it was 16.5 µM (inactive); in the test on SF-295, 16.2 µM (inactive); in the test on 786-0 it was 12.7 µM (inactive); in the test on SF-539, 13.2 µM (inactive).
Consider `N#CC(NNC(=O)Cc1ccccc1)c1ccc([N+](=O)[O-])cc1` (stereo unspecified), for which the GI50 in the test on IGROV-1, in the test on NCI-H226, with SW-620, in the test on KM12, in the test on UO-31 and with UACC-62 was > 100 µM (inactive) each time. In addition, the GI50 was > 100 µM (inactive) in the test with SK-MEL-2; 65.6 µM (inactive) with SNB-75; greater than 100 µM in the test on HCT-15; > 100 µM (inactive) in the test on U-251; > 100 µM (inactive) with SK-MEL-5; > 100 µM (inactive) in the test with LOX IMVI. Further, the GI50 in the test on COLO 205, in the test on SF-295, with 786-0 and with SF-539 was > 100 µM (inactive) each time.
On to `CC(C)=CCN(N=O)c1ncnc2[nH]cnc12`, for which the GI50 with IGROV-1, in the test with Hs-578T, in the test with NCI-H226, in the test with SW-620, in the test with KM12 and in the test with UO-31 was > 100 µM (inactive) in each case. In addition, the GI50 was > 100 µM (inactive) with CAKI-1; 54.8 µM (inactive) in the test on SNB-75; > 100 µM (inactive) in the test on SK-MEL-5; 92.5 µM (inactive) in the test with LOX IMVI; > 100 µM (inactive) in the test on COLO 205; > 100 µM (inactive) with SF-295. Also, the GI50 in the test on T47D was 94.6 µM (inactive); in the test with 786-0 it was > 100 µM (inactive); with SF-539, > 100 µM (inactive).
As for `Cc1cccc(C(=O)O)c1C(=O)c1cccc2ccccc12`, the GI50 in the test with IGROV-1, with NCI-H226, with SW-620, in the test on KM12, with UO-31 and in the test with CAKI-1 was > 100 µM (inactive) each time. For the same compound, the GI50 is > 100 µM (inactive) in the test with UACC-62; 98.2 µM (inactive) in the test with SK-MEL-2; > 100 µM (inactive) with SNB-75; 37.7 µM in the test with HCT-15; > 100 µM (inactive) in the test on U-251; > 100 µM (inactive) with SK-MEL-5. Further, the GI50 in the test with LOX IMVI, in the test on COLO 205, in the test with SF-295 and in the test with 786-0 was > 100 µM (inactive) in each case.
As to `CC(Oc1ccc(OCC2CCCCC2)cc1)C(=O)OCC(=O)c1ccc(-c2ccccc2)cc1` (stereo unspecified), the GI50 with IGROV-1, in the test with NCI-H226, in the test with KM12, in the test on UO-31, in the test with UACC-62 and in the test on SK-MEL-2 was > 100 µM (inactive) throughout. In addition, the GI50 with SNB-75 was > 100 µM (inactive); in the test on HCT-15, greater than 100 µM; in the test with U-251, > 100 µM (inactive); in the test on SK-MEL-5, > 100 µM (inactive); in the test on LOX IMVI it was > 100 µM (inactive); in the test with SF-295, > 100 µM (inactive). Further, the GI50 with 786-0 and in the test with SF-539 was > 100 µM (inactive) throughout.
As to `CC(C)C(/C=C/c1ccccc1)=N\NC(=O)N/N=C(/C=C/c1ccccc1)C(C)C`, the GI50 in the test on IGROV-1 was 39.1 µM (inactive); in the test on NCI-H226, 18.2 µM (inactive); in the test on SW-620 it was 37 µM (inactive); in the test on KM12, 36.3 µM (inactive); with UO-31, 14.7 µM (inactive); with CAKI-1 it was 6.98 µM (inactive). Moreover, the GI50 was 56.9 µM (inactive) with UACC-62; 19.9 µM (inactive) in the test with SK-MEL-2; 25.8 µM (inactive) in the test with SNB-75; 20.7 µM in the test on HCT-15; 32.3 µM (inactive) with U-251; 21.7 µM (inactive) in the test with SK-MEL-5. In addition, the GI50 with LOX IMVI is 32.4 µM (inactive); with COLO 205, 18.4 µM (inactive); with SF-295, 39.9 µM (inactive); with 786-0, 18.9 µM (inactive); in the test with SF-539, 31.1 µM (inactive).
Consider `CCOC(=O)C1=C(OC(OCC)C(CC)[Se]c2ccccc2)CCC1` (stereo unspecified), for which the GI50 is 25.6 µM (inactive) in the test with IGROV-1; 18.3 µM (inactive) in the test on NCI-H226; 39.4 µM (inactive) in the test on KM12; 28.9 µM (inactive) with UO-31; 44.2 µM (inactive) with CAKI-1; 17.8 µM (inactive) in the test with UACC-62. For the same compound, the GI50 in the test with SK-MEL-2 was 31.5 µM (inactive); with SNB-75 it was 25.3 µM (inactive); in the test with HCT-15 it was 14.7 µM; in the test on U-251, 11.4 µM (inactive); with SK-MEL-5, 12.6 µM (inactive); with LOX IMVI, 7.31 µM (inactive). Besides, the GI50 in the test with COLO 205 is 34.3 µM (inactive); with SF-295, 16.9 µM (inactive); in the test with 786-0 it was 15.5 µM (inactive); in the test on SF-539, 19.8 µM (inactive).
Regarding `N#CCCc1nc2ccc(Br)cc2c(=O)n1CCO`, the GI50 in the test with IGROV-1, with NCI-H226, with SW-620, in the test with KM12, in the test with UO-31 and in the test with CAKI-1 was > 100 µM (inactive) throughout. The GI50 in the test with UACC-62 is > 100 µM (inactive); in the test with SK-MEL-2 it was > 100 µM (inactive); in the test with SNB-75, > 100 µM (inactive); with HCT-15, greater than 100 µM; in the test with SK-MEL-5, > 100 µM (inactive); in the test on LOX IMVI, > 100 µM (inactive). Besides, the GI50 in the test on COLO 205, in the test with SF-295, in the test on 786-0 and in the test on SF-539 was > 100 µM (inactive) each time.
Consider `CC1=NN(c2cccc(Cl)c2)C2(C1=Cc1ccc(N(C)C)cc1)C(Cl)C(=O)N2c1nc2ccccc2s1` (stereo unspecified), for which the GI50 is 40.7 µM (inactive) in the test on IGROV-1; 23.5 µM (inactive) with Hs-578T; > 100 µM (inactive) in the test with NCI-H226; 19.6 µM (inactive) with SW-620; 3.95 µM (inactive) in the test with KM12; > 100 µM (inactive) with UO-31. In addition, the GI50 with CAKI-1 is 72.9 µM (inactive); in the test with SK-MEL-2 it was 60.3 µM (inactive); in the test on HCT-15, 77.4 µM; with U-251, 53.7 µM (inactive); with SK-MEL-5, 49.1 µM (inactive); in the test on LOX IMVI it was > 100 µM (inactive). Moreover, the GI50 in the test with SF-295 was 67.1 µM (inactive); in the test with T47D it was 50.8 µM (inactive); in the test with 786-0 it was 43.1 µM (inactive); in the test with SF-539 it was 49.1 µM (inactive).

As a reminder, the GI50 is the concentration at which growth is held to half of that of the control.
